Measurements published in article PMC6715681, “A high-throughput screen to identify novel synthetic lethal compounds for the treatment of E-cadherin-deficient cells” (Scientific Reports, 2019).

System: MCF10A WT and MCF10A CDH1^−/− cells
Experiment: Single-point confirmation screen (10 μM, CTB, 384-well), viability differential between isogenic lines
Type: cell-based, human
Details: averaged between three biological replicates, Supplementary Table 2
Method: In the single-point confirmation screen, compounds that preferentially harm MCF10A CDH1^−/− cells compared to the wild-type cells were now identified. Three biological replicates were performed for each of the isogenic cell lines at a single-point (10 μM) in 384-well plates. All assay plates had acceptable Z’ values above 0.4 and 23 out of 48 plates had values above 0.6. The POC R^2 correlation between the three biological replicates for the two isogenic cell lines were all above 0.8 (data not shown). A cell viability differential of ‘MCF10A WT POC – MCF10A CDH1^−/− POC’ was used to select hits. An arbitrary threshold for the mean differential of >8.5% was chosen in order to maximize the number of hits being screened in the subsequent stages and to reduce false negatives.
To incorporate a measure of the variability between replicates of the screen into the hit selection process, a further requirement was included of a minimum of 2/3 biological replicates having viability differentials >8.5%. This removed a further 52 compounds shown in blue with only one out of three biological replicates crossing the Y = X-8.5 line independent of the mean. In total, 256 compounds were above the hit selection threshold, thereby preferentially killing E-cadherin negative cells. The mean POC differential of the 256 hits was 17.6% +/− 7.1 (+/−SD), with the highest being 48% for SLEC-1 (Synthetic Lethal E-Cadherin compound 1). […] The resulting 256 SL compounds were then assayed in an 11-point screen for EC50 determination.
MCF10A WT and MCF10A CDH1^−/− cells were seeded into Corning black walled, clear bottom 384-well plates (assay plates) using a multidrop 384 reagent dispenser (Thermo Fisher Scientific) and a total volume of 50 μL per well.
As we have shown MCF10A CDH1^−/− cells have a prolonged lag to log phase growth of around 24 hours, in order to achieve a similar confluence at 72 hours post seeding MCF10A WT and MCF10A CDH1^−/− cell lines were seeded at 600 cells/well and 800 cells/well, respectively. […] At 72 hours post seeding, plates were removed from the incubator and left for 30 minutes at RT to equalise the temperature across all wells of the plates and reduce fluorescence-based edge effects before reading on an EnVision (PerkinElmer) at 550 nm excitation and 590 nm emission to quantify cell viability.
The coRFU values were then used to calculate the normalized readouts of percent of controls (Eq. 3) and the robust Z score (Eqs 4,5), where doxorubicin refers to an EC80 dose and DMSO was 0.2% v/v.3 coPOC=100×(SamplecoRFU−x¯doxorubicincoRFU)/(x¯DMSOcoRFU−x¯doxorubicincoRFU) 4 MAD=median([…]) 5 CorrectedrobustZscore=(SamplecoRFU−platemediancoRFU)/MAD

In the case of `COc1ccc2nc(C)cc(NCc3ccc(F)cc3)c2c1` [SLEC-11, N-(4-Fluorobenzyl)-6-methoxy-2-methylquinolin-4-amine], the “Differential at 1-pt” value is reported as 17.42.
